Results published in US11389447B2 (Janssen Sciences Ireland Unlimited Company, priority 2006, dated 2022).
Like-named read-outs stand apart in the source and are kept apart here.

Legend:
[1] = Kinetic study: plasma kinetics of TMC278 after single IM or SC injection of a nanosuspension; format: in vivo, male beagle dogs; conditions: male, beagle, dog, plasma, sc, 5 mg/kg; for AUC(0-t) / Cmax / Tmax: single SC 5 mg/kg TMC278 nanosuspension; for Cmax: read-out: Cmax; for Tmax: read-out: Tmax;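 for all read-outs here: healthy male beagle dogs injected in both biceps femoris muscles (IM) or both thoracal sides (SC), total volume 0.2 mL/kg, drug measured in plasma from blood samples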
Description: Six healthy male beagle dogs with body weights ranging from 8 to 16 kg at the start of the study, were used. Each dog was identified by an ear tattoo number. Two dogs were dosed intramuscularly (IM) in the left and right m. biceps femoris (treatment group A). […] Two dogs were dosed subcutaneously (SC) in the left and right thoracal region. The injection volume was 2×0.1 ml/kg in all treatment groups. A 20 G needle was used.
Blood samples of 3 ml were taken from the left jugular vein from all dogs on day 0 at 0 h (predose), 20 min, 1 h, 3 h, 8 h and 24 h post-dose and further on days 2, 3, 6, 8, 10, 13, 16, 20, 23, 27, 29, 36, 43, 50, 57, 64, 71, 78, 85 and 92 at approximately 8 AM. Blood samples were placed on EDTA, EDTA Vacuette Greiner, Cat. No. 454086, Greiner Labortechnik N.V.). Within 2 h of blood sampling, samples were centrifuged at room temperature at about 1900×g for 10 minutes to allow plasma separation. Plasma was immediately transferred into a second tube and stored in the freezer within 2 hours after the start of centrifugation.

[2] = tested on: wild type HIV; conditions: cited from earlier work

In the case of `Cc1cc(C=CC#N)cc(C)c1Nc1ccnc(Nc2ccc(C#N)cc2)n1` [TMC278, 4-[[4-[[4-(2-cyanoethenyl)-2,6-dimethylphenyl]amino]-2-pyrimidinyl]amino]benzonitrile], the concentration at 1536 h ([1]; plasma concentration of TMC278, single SC 5 mg/kg TMC278 nanosuspension, dog 19349, 1536 h (d64)) is reported as 2.05 ng/mL, the concentration at 1704 h ([1]; plasma concentration of TMC278, single SC 5 mg/kg TMC278 nanosuspension, dog 19349, 1704 h (d71)) is reported as 3.57 ng/mL and the concentration at 1872 h ([1]; plasma concentration of TMC278, single SC 5 mg/kg TMC278 nanosuspension, dog 19349, 1872 h (d78)) is reported as 1.91 ng/mL. The concentration at 2040 h ([1]; plasma concentration of TMC278, single SC 5 mg/kg TMC278 nanosuspension, dog 19349, 2040 h (d85)) was 2.82 ng/mL, the concentration at 2208 h ([1]; plasma concentration of TMC278, single SC 5 mg/kg TMC278 nanosuspension, dog 19349, 2208 h (d92)) was 2.49 ng/mL and the concentration at 0 h ([1]; plasma concentration of TMC278, single SC 5 mg/kg TMC278 nanosuspension, mean of 2 dogs, 0 h (d0, predose)) was under 1 ng/mL. For the same compound, the concentration at 1 h ([1]; plasma concentration of TMC278, single SC 5 mg/kg TMC278 nanosuspension, mean of 2 dogs, 1 h) was 1.5 ng/mL, the concentration at 3 h ([1]; plasma concentration of TMC278, single SC 5 mg/kg TMC278 nanosuspension, mean of 2 dogs, 3 h) was 8.19 ng/mL and the concentration at 8 h ([1]; plasma concentration of TMC278, single SC 5 mg/kg TMC278 nanosuspension, mean of 2 dogs, 8 h) was 20.7 ng/mL. It also gave a concentration at 24 h ([1]; plasma concentration of TMC278, single SC 5 mg/kg TMC278 nanosuspension, mean of 2 dogs, 24 h (d1)) of 22.1 ng/mL, a concentration at 48 h ([1]; plasma concentration of TMC278, single SC 5 mg/kg TMC278 nanosuspension, mean of 2 dogs, 48 h (d2)) of 32 ng/mL and a concentration at 72 h ([1]; plasma concentration of TMC278, single SC 5 mg/kg TMC278 nanosuspension, mean of 2 dogs, 72 h (d3)) of 28.4 ng/mL. The concentration at 144 h ([1]; plasma concentration of TMC278, single SC 5 mg/kg TMC278 nanosuspension, mean of 2 dogs, 144 h (d6)) was 25.8 ng/mL, the concentration at 192 h ([1]; plasma concentration of TMC278, single SC 5 mg/kg TMC278 nanosuspension, mean of 2 dogs, 192 h (d8)) was 20.4 ng/mL and the concentration at 240 h ([1]; plasma concentration of TMC278, single SC 5 mg/kg TMC278 nanosuspension, mean of 2 dogs, 240 h (d10)) was 33.2 ng/mL. The concentration at 312 h ([1]; plasma concentration of TMC278, single SC 5 mg/kg TMC278 nanosuspension, mean of 2 dogs, 312 h (d13)) was 30.3 ng/mL, the concentration at 384 h ([1]; plasma concentration of TMC278, single SC 5 mg/kg TMC278 nanosuspension, mean of 2 dogs, 384 h (d16)) was 19.2 ng/mL and the concentration at 480 h ([1]; plasma concentration of TMC278, single SC 5 mg/kg TMC278 nanosuspension, mean of 2 dogs, 480 h (d20)) was 25.5 ng/mL. For the same compound, the concentration at 648 h ([1]; plasma concentration of TMC278, single SC 5 mg/kg TMC278 nanosuspension, mean of 2 dogs, 648 h (d27)) was 15 ng/mL, the concentration at 696 h ([1]; plasma concentration of TMC278, single SC 5 mg/kg TMC278 nanosuspension, mean of 2 dogs, 696 h (d29)) was 15.8 ng/mL and the concentration at 864 h ([1]; plasma concentration of TMC278, single SC 5 mg/kg TMC278 nanosuspension, mean of 2 dogs, 864 h (d36)) was 9.1 ng/mL. It also gave a concentration at 1032 h ([1]; plasma concentration of TMC278, single SC 5 mg/kg TMC278 nanosuspension, mean of 2 dogs, 1032 h (d43)) of 5.63 ng/mL, a concentration at 1200 h ([1]; plasma concentration of TMC278, single SC 5 mg/kg TMC278 nanosuspension, mean of 2 dogs, 1200 h (d50)) of 4.89 ng/mL and a concentration at 1368 h ([1]; plasma concentration of TMC278, single SC 5 mg/kg TMC278 nanosuspension, mean of 2 dogs, 1368 h (d57)) of 3.65 ng/mL. The concentration at 1536 h ([1]; plasma concentration of TMC278, single SC 5 mg/kg TMC278 nanosuspension, mean of 2 dogs, 1536 h (d64)) was 4.25 ng/mL, the concentration at 1704 h ([1]; plasma concentration of TMC278, single SC 5 mg/kg TMC278 nanosuspension, mean of 2 dogs, 1704 h (d71)) was 3.77 ng/mL and the concentration at 1872 h ([1]; plasma concentration of TMC278, single SC 5 mg/kg TMC278 nanosuspension, mean of 2 dogs, 1872 h (d78)) was 2.79 ng/mL. It also gave a concentration at 2040 h ([1]; plasma concentration of TMC278, single SC 5 mg/kg TMC278 nanosuspension, mean of 2 dogs, 2040 h (d85)) of 5.71 ng/mL, a concentration at 2208 h ([1]; plasma concentration of TMC278, single SC 5 mg/kg TMC278 nanosuspension, mean of 2 dogs, 2208 h (d92)) of 2.77 ng/mL and an AUC(0-t) ([1]; dog 19129, read-out: AUC0-312 h) of 6910 ng·h/mL. For the same compound, the AUC(0-t) ([1]; dog 19129, read-out: AUC0-696 h) was 15900 ng·h/mL, the AUC(0-t) ([1]; dog 19129, read-out: AUC0-2208 h) was 26400 ng·h/mL and the Cmax ([1]; dog 19129) was 34.8 ng/mL. For the same compound, the Tmax ([1]; dog 19129) was 48 h, the AUC(0-t) ([1]; dog 19349, read-out: AUC0-312 h) was 9880 ng·h/mL and the AUC(0-t) ([1]; dog 19349, read-out: AUC0-696 h) was 16700 ng·h/mL. For the same compound, the AUC(0-t) ([1]; dog 19349, read-out: AUC0-2208 h) was 22400 ng·h/mL, the Tmax ([1]; dog 19349) was 240 h and the AUC(0-t) ([1]; mean of 2 dogs, read-out: AUC0-312 h) was 8400 ng·h/mL. It also gave an AUC(0-t) ([1]; mean of 2 dogs, read-out: AUC0-696 h) of 16300 ng·h/mL, an AUC(0-t) ([1]; mean of 2 dogs, read-out: AUC0-2208 h) of 24400 ng·h/mL and a Cmax ([1]; mean of 2 dogs) of 38.4 ng/mL. The Tmax ([1]; mean of 2 dogs) was 144 h and the “activity against wild type HIV (in words)” value [2] was “pronounced activity”.
